Reference: PubChem BioAssay (NCI)
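Each compound was tested at five concentrations against cells in 96-well plates for 48 hours. GI50 is the concentration that inhibits growth by half. Definition used: TGI = concentration required for complete inhibition of growth.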

Assays:
Experiment in all cases: DTP human tumour cell line panel, 48 h
MCF7 breast = system: MCF7 breast
CCRF-CEM leukemia = system: CCRF-CEM leukemia
DU-145 prostate = system: DU-145 prostate
BT-549 breast = system: BT-549 breast
786-0 renal = system: 786-0 renal
HL-60(TB) leukemia = system: HL-60(TB) leukemia
K-562 leukemia = system: K-562 leukemia
UACC-257 melanoma = system: UACC-257 melanoma
U251 CNS = system: U251 CNS
TK-10 renal = system: TK-10 renal
HCT-15 colon = system: HCT-15 colon
RPMI-8226 leukemia = system: RPMI-8226 leukemia
SNB-19 CNS = system: SNB-19 CNS
SR leukemia = system: SR leukemia
SF-268 CNS = system: SF-268 CNS
HCT-116 colon = system: HCT-116 colon
A549 NSCLC = system: A549 NSCLC
OVCAR-3 ovarian = system: OVCAR-3 ovarian
UO-31 renal = system: UO-31 renal
NCI-H23 lung = system: NCI-H23 lung
COLO 205 colon = system: COLO 205 colon
HCC-2998 colon = system: HCC-2998 colon
HOP-62 NSCLC = system: HOP-62 NSCLC
MDA-MB-435 = system: MDA-MB-435
MALME-3M melanoma = system: MALME-3M melanoma
KM12 colon = system: KM12 colon
SF-539 CNS = system: SF-539 CNS
A498 renal = system: A498 renal
OVCAR-5 ovarian = system: OVCAR-5 ovarian
NCI-H522 lung = system: NCI-H522 lung
OVCAR-4 ovarian = system: OVCAR-4 ovarian
PC-3 prostate = system: PC-3 prostate
NCI-H460 lung = system: NCI-H460 lung
HT29 colon = system: HT29 colon
SK-MEL-28 melanoma = system: SK-MEL-28 melanoma
EKVX NSCLC = system: EKVX NSCLC
HOP-92 NSCLC = system: HOP-92 NSCLC
SNB-75 CNS = system: SNB-75 CNS
MDA-MB-231 breast = system: MDA-MB-231 breast
MOLT-4 leukemia = system: MOLT-4 leukemia
SK-MEL-5 melanoma = system: SK-MEL-5 melanoma
NCI-H226 lung = system: NCI-H226 lung
HS 578T breast = system: HS 578T breast
SW-620 colon = system: SW-620 colon
RXF 393 renal = system: RXF 393 renal
ACHN renal = system: ACHN renal
SK-OV-3 ovarian = system: SK-OV-3 ovarian
CAKI-1 renal = system: CAKI-1 renal
UACC-62 melanoma = system: UACC-62 melanoma
IGROV1 ovarian = system: IGROV1 ovarian
SF-295 CNS = system: SF-295 CNS
LOX IMVI melanoma = system: LOX IMVI melanoma
SN12C renal = system: SN12C renal
M14 melanoma = system: M14 melanoma

SMILES: C[n+]1c2ccccc2c(Nc2ccc(N3CCCCC3)cc2)c2[nH]c3ccccc3c21
- GI50 (MCF7 breast): 0.152 µM
- TGI (MCF7 breast): 0.524 µM
- GI50 (CCRF-CEM leukemia): 0.0832 µM
- TGI (CCRF-CEM leukemia): 0.312 µM
- GI50 (DU-145 prostate): 0.272 µM
- TGI (DU-145 prostate): 0.802 µM
- GI50 (BT-549 breast): 1.16 µM
- TGI (BT-549 breast): 2.45 µM
- GI50 (786-0 renal): 0.456 µM
- TGI (786-0 renal): 1.69 µM
- GI50 (HL-60(TB) leukemia): 0.0282 µM
- TGI (HL-60(TB) leukemia): 0.192 µM
- GI50 (K-562 leukemia): 0.155 µM
- TGI (K-562 leukemia): 0.353 µM
- GI50 (UACC-257 melanoma): 0.417 µM
- TGI (UACC-257 melanoma): 1.07 µM
- GI50 (U251 CNS): 0.205 µM
- TGI (U251 CNS): 0.67 µM
- GI50 (TK-10 renal): 1.23 µM
- TGI (TK-10 renal): 2.6 µM
- GI50 (HCT-15 colon): 0.154 µM
- TGI (HCT-15 colon): 0.324 µM
- GI50 (RPMI-8226 leukemia): 0.081 µM
- TGI (RPMI-8226 leukemia): 0.262 µM
- GI50 (SNB-19 CNS): 0.427 µM
- TGI (SNB-19 CNS): 1.76 µM
- GI50 (SR leukemia): 3.79 µM
- TGI (SR leukemia): > 100 µM
- GI50 (SF-268 CNS): 0.46 µM
- TGI (SF-268 CNS): 1.62 µM
- GI50 (HCT-116 colon): 0.132 µM
- TGI (HCT-116 colon): 0.361 µM
- GI50 (A549 NSCLC): 0.166 µM
- TGI (A549 NSCLC): 0.549 µM
- GI50 (OVCAR-3 ovarian): 0.185 µM
- TGI (OVCAR-3 ovarian): 0.368 µM
- GI50 (UO-31 renal): 0.144 µM
- TGI (UO-31 renal): 0.833 µM
- GI50 (NCI-H23 lung): 0.349 µM
- TGI (NCI-H23 lung): 1.68 µM
- GI50 (COLO 205 colon): 0.14 µM
- TGI (COLO 205 colon): 0.344 µM
- GI50 (HCC-2998 colon): 0.185 µM
- TGI (HCC-2998 colon): 0.619 µM
- GI50 (HOP-62 NSCLC): 0.456 µM
- TGI (HOP-62 NSCLC): 1.81 µM
- GI50 (MDA-MB-435): 0.442 µM
- TGI (MDA-MB-435): 1.65 µM
- GI50 (MALME-3M melanoma): 0.34 µM
- TGI (MALME-3M melanoma): 1.53 µM
- GI50 (KM12 colon): 0.281 µM
- TGI (KM12 colon): 0.958 µM
- GI50 (SF-539 CNS): 0.617 µM
- TGI (SF-539 CNS): 1.9 µM
- GI50 (A498 renal): 0.234 µM
- TGI (A498 renal): 0.843 µM
- GI50 (OVCAR-5 ovarian): 0.658 µM
- TGI (OVCAR-5 ovarian): 2.09 µM
- TGI (NCI-H522 lung): 0.0908 µM
- GI50 (OVCAR-4 ovarian): 0.326 µM
- TGI (OVCAR-4 ovarian): 1.23 µM
- GI50 (PC-3 prostate): 0.154 µM
- TGI (PC-3 prostate): 0.416 µM
- GI50 (NCI-H460 lung): 0.152 µM
- TGI (NCI-H460 lung): 0.48 µM
- GI50 (HT29 colon): 0.191 µM
- TGI (HT29 colon): 0.656 µM
- GI50 (SK-MEL-28 melanoma): 0.418 µM
- TGI (SK-MEL-28 melanoma): 1.36 µM
- GI50 (EKVX NSCLC): 0.459 µM
- TGI (EKVX NSCLC): 1.93 µM
- GI50 (HOP-92 NSCLC): 0.264 µM
- TGI (HOP-92 NSCLC): 1.2 µM
- GI50 (SNB-75 CNS): 0.522 µM
- TGI (SNB-75 CNS): 1.91 µM
- GI50 (MDA-MB-231 breast): 0.327 µM
- TGI (MDA-MB-231 breast): 1.7 µM
- GI50 (MOLT-4 leukemia): 0.0536 µM
- TGI (MOLT-4 leukemia): 1.18 µM
- GI50 (SK-MEL-5 melanoma): 0.333 µM
- TGI (SK-MEL-5 melanoma): 1.46 µM
- GI50 (NCI-H226 lung): 0.324 µM
- TGI (NCI-H226 lung): 1.8 µM
- GI50 (HS 578T breast): 0.231 µM
- TGI (HS 578T breast): 0.705 µM
- GI50 (SW-620 colon): 0.184 µM
- TGI (SW-620 colon): 0.726 µM
- GI50 (RXF 393 renal): 0.174 µM
- TGI (RXF 393 renal): 0.347 µM
- GI50 (ACHN renal): 0.223 µM
- TGI (ACHN renal): 1.01 µM
- GI50 (SK-OV-3 ovarian): 0.515 µM
- TGI (SK-OV-3 ovarian): 1.85 µM
- GI50 (CAKI-1 renal): 0.114 µM
- TGI (CAKI-1 renal): 1.06 µM
- GI50 (UACC-62 melanoma): 0.194 µM
- TGI (UACC-62 melanoma): 0.861 µM
- GI50 (IGROV1 ovarian): 0.229 µM
- TGI (IGROV1 ovarian): 1.18 µM
- GI50 (SF-295 CNS): 0.379 µM
- TGI (SF-295 CNS): 1.55 µM
- GI50 (LOX IMVI melanoma): 0.144 µM
- TGI (LOX IMVI melanoma): 0.34 µM
- GI50 (SN12C renal): 0.212 µM
- TGI (SN12C renal): 1.24 µM
- GI50 (M14 melanoma): 0.346 µM
- TGI (M14 melanoma): 1.47 µM
